Test results from patent publication US20250109134A1 (Ascentage Pharma (Suzhou) Co., Ltd., priority 2022, published 2025).

Assays:
Assay type in all cases: physicochemical
[1] = Dynamic vapor sorption (DVS) hygroscopicity test; conditions: summary of forms
Text: In the present invention, the DVS test parameters are set as follows: […]

[2] = XRPD characterization (crystallinity), summary evaluation; conditions: summary of forms
Text: In the present invention, the XRPD test parameters are set as follows: […]

[3] = Stability study, solid form by XRPD after open storage at high temperature / high humidity; conditions: summary of forms
Method: In the present invention, the XRPD test parameters are set as follows:
Then, the sample flasks were opened to air (sealed with aluminum foil punctured with small holes) and placed in constant temperature and humidity cabinets at high temperature (60° C.), at room temperature and high humidity (RT/92.5% RH), at RT/75% RH, and at 40° C./75% RH for 30 days, respectively, and samples were taken at days 5, 10 and 30 for XRPD and HPLC detection.

[4] = Stability study, content and related substances (TRS, total impurity content) by HPLC
Method: In the present invention, the HPLC (high performance liquid chromatography) test parameters are set as follows:
Then, the sample flasks were opened to air (sealed with aluminum foil punctured with small holes) and placed in constant temperature and humidity cabinets at high temperature (60° C.), at room temperature and high humidity ([…]), at RT/75% RH, and at 40° C./75% RH for 30 days, respectively, […]

SMILES	Evaluation results: hygroscopicity [1]	Evaluation results: crystallinity [2]	Evaluation results: stability [3]	TRS(%) ([4]; 40° C./75RH %-5 d, open storage)	TRS(%) ([4]; 40° C./75RH %- 10 d, open storage)	TRS(%) ([4]; 40° C./75RH %- 30 d, open storage)	TRS(%) ([4]; 60° C.-5 d, open storage)	TRS(%) ([4]; 60° C.-10 d, open storage)	TRS(%) ([4]; 60° C.-30 d, open storage)	TRS(%) ([4]; Initial, TRS = total impurity content, HPLC)	TRS(%) ([4]; RT/90RH %-5 d, open storage)	TRS(%) ([4]; RT/90RH %-10 d, open storage)	TRS(%) ([4]; RT/90RH %-30 d, open storage)
CC(C)N1Cc2cc(C(F)(F)F)ncc2-c2cnc(NCc3c(F)ccc4c3CCO4)n3cnc(c23)C1=O [Crystalline form G]	slight hygroscopicity	High crystallinity	–	–	–	–	–	–	–	–	–	–	–
CC(C)N1Cc2cc(C(F)(F)F)ncc2-c2cnc(NCc3c(F)ccc4c3CCO4)n3cnc(c23)C1=O [Crystalline form B]	–	high crystallinity	Good stability	0.54	0.46	0.56	0.52	0.53	0.62	0.89	0.55	0.56	0.58
CC(C)N1Cc2cc(C(F)(F)F)ncc2-c2cnc(NCc3c(F)ccc4c3CCO4)n3cnc(c23)C1=O.CS(=O)(=O)O [Methanesulfonate salt Crystalline form A]	–	High crystallinity	–	–	–	–	–	–	–	–	–	–	–
